Measured values from patent US11820729B2 (Johnson & Johnson Consumer Inc., priority 2014, dated 2023).

Columns and labels:
[1] = system: 16-hour salivary biofilm on pellicle coated hydroxyapatite pegs; assay: Prevention assay: prevention of bacterial attachment to pellicle coated hydroxyapatite pegs, ATP bioluminescence; assay type: cell-based
Protocol: The formulations in Examples 2-4, 6, 8 and 9 were prepared and test for prevention of bacterial attachment using the prevention assay. In this assay hydroxyapatite-coated polystyrene peg plate (96 pegs, N=8 per group) was exposed to saliva for one minute to form a pellicle at a temperature of 35 C. Then, for each formulation, eight pegs (N=8) were pre-treated for ten minutes with the formulation using an orbital shaker set to 500 RPM at room temperature. As a negative control, eight pegs (N=8) were pre-treated for ten minutes with sterile water. Next, a 16-hour salivary biofilm was grown on these polystyrene peg plates at a temperature of 35 C.
After all treatments were complete, the biofilm from each peg was neutralized and rinsed. The biofilm was harvested via sonication using a Q-Sonica Q700 Ultrasonic Liquid Processor with 431MP4-00 microplate horn Damper and 0.5:1 reverse gain booster (Q-Sonica, Newtown, Conn.). Using a Celsis Rapid Detection RapiScreen kit (Celsis International PLC, Chicago, Ill.), the bacteria were lysed with Celsis Luminex and then the adenosine triphosphate (ATP) from the lysed bacteria was measured using the bioluminescence marker Celcis Luminate and a Centro LB 960 Microplate Luminometer supplied by Berthold Technologies (Wildbad, Germany). Data were reported in log RLU (relative light units) where decreasing log RLUs indicated fewer viable bacteria remained on the biofilm substrate. The log RLUs for the prevention assay are shown on Tables 2, 4, 6, 10, 14, and 16.

[2] = system: S. mutans biofilm; assay: S. mutans single species kill assay (in-vitro biofilm model); assay type: cell-based; details: simple solution formulas (Table 13), 30 second treatment
Protocol: The formulations listed in Example 7 were prepared and tested using an in-vitro single species S. mutans biofilm model. A 24-hour S. mutans biofilm is grown on a polystyrene peg plate (96 pegs, N=6 per test group). The pegs were subsequently treated for thirty seconds with each of formulations H and I, as well as positive and negative controls. The treatment is applied as a single thirty (30) second treatment. The positive control is a commercially available essential oil mouth rinse. The negative control is sterile water. After treatment the biofilm is neutralized and rinsed. The biofilm is harvested via sonication using a Misonix Ultrasonic Liquid Processor (Farmingdale, N.Y.). Using a Celsis Rapid Detection RapiScreen kit (Celsis International PLC, Chicago), the bacteria are lysed with Celsis Luminex and then the adenosine triphosphate (ATP) from the lysed bacteria is measured using the bioluminescence marker LB960 Microplate Luminometer supplied by Berthold (Wildbad, Germany). Data are reported in log RLU (relative light units) where decreasing log RLUs indicates fewer viable bacteria remaining on the biofilm substrate.

[3] = HPLC quantification of compound remaining after storage at 50° C.; assay type: physicochemical; details: HPLC
Protocol: Briefly, formulations containing either LAE or any of the 26 compounds and standards are diluted into a solution of 50% acetonitrile and 50% water. They are evaluated on an Agilent HPLC using a Zorbax ion exchange column. In the method, 10 uL of the sample is withdrawn and ran through the HPLC with a 40% potassium phosphate (molarity at pH 3.0) 60% acetonitrile mobile phase. […] The molecule peak is auto integrated using the Online Agilent HPLC software. Comparisons are made to the standard to identify the % of compound remaining following storage.

[4] = simple solution solvent base formulas (Table 11)

## CCCCCCCCCCCC(=O)NC(CCCNC(=N)N)C(=O)NCC (centres unmarked) [Compound 9, [amino({[4-dodecanamido-4-(ethylcarbamoyl)butyl]amino})methylidene]azanium]
[1]; 0.15 wt % compound 9, Table 6
  effect of presence of essential oils (EOs) on prevention of bacterial attachment: has no effect
  effect of surfactant on prevention of bacterial attachment: has a major effect
[1]; 0.15 wt % in alcohol free base, compositions K-R
  prevention of bacterial attachment in full formula: Prevents Bacterial Attachment in Full Formula
[1]; 0.15 wt % in water
  efficacy at preventing bacterial attachment: demonstrated efficacy at preventing bacterial attachment
[1]; 0.15 wt %, 21.6% alcohol and water-based solution
  prevention of bacterial attachment compared with LAE: equally as efficacious as LAE
[1]; Table 15 formulations, water as the only solvent
  prevention of bacterial attachment in alcohol free full formulations: Prevent Bacterial Attachment
[1]; Table 17 formulations, water and propylene glycol as solvents
  prevention of bacterial attachment in alcohol-free full formulations: Prevent Bacterial Attachment
[1]; compound 9 in simple water solution (Table 1 compositions)
  most effective concentration for prevention of bacterial attachment: 0.3 wt %
[1]; compound 9 in water, 0.01-0.4 w/w %
  concentration effect on prevention of bacterial attachment: dose dependent response
[1]; [4]
  ability to prevent bacterial attachment: have the ability to prevent bacterial attachment
  preventing bacterial attachment the best: preventing bacterial attachment the best
[2]
  log reduction in S. mutans: do not Result in More than a One Log Reduction in S. mutans
[3]; 8 weeks, 50° C., formulations of Table 7
  % of molecule maintained out to 8 weeks when stored at 50° C.: at least 90%
[3]; storage at 50° C.
  stability in an alcohol-free formulation: Maintains Stability
